Earlier results as cited in patent publication US7776915B2, “Topical formulations and methods of use” (Tracie Martyn International, LLC, priority 2005, dated 2010).

Tests used:
[1] = dosages above 500 mg/kg body weight
neurites in the brain = conditions: similar to the stimulating effect of nerve growth factor
ACE = ACE (Homo sapiens, UniProt P12821); conditions: read-out: ACE inhibitor IC50
ACE, sequence (P12821 30-1306, species assumed): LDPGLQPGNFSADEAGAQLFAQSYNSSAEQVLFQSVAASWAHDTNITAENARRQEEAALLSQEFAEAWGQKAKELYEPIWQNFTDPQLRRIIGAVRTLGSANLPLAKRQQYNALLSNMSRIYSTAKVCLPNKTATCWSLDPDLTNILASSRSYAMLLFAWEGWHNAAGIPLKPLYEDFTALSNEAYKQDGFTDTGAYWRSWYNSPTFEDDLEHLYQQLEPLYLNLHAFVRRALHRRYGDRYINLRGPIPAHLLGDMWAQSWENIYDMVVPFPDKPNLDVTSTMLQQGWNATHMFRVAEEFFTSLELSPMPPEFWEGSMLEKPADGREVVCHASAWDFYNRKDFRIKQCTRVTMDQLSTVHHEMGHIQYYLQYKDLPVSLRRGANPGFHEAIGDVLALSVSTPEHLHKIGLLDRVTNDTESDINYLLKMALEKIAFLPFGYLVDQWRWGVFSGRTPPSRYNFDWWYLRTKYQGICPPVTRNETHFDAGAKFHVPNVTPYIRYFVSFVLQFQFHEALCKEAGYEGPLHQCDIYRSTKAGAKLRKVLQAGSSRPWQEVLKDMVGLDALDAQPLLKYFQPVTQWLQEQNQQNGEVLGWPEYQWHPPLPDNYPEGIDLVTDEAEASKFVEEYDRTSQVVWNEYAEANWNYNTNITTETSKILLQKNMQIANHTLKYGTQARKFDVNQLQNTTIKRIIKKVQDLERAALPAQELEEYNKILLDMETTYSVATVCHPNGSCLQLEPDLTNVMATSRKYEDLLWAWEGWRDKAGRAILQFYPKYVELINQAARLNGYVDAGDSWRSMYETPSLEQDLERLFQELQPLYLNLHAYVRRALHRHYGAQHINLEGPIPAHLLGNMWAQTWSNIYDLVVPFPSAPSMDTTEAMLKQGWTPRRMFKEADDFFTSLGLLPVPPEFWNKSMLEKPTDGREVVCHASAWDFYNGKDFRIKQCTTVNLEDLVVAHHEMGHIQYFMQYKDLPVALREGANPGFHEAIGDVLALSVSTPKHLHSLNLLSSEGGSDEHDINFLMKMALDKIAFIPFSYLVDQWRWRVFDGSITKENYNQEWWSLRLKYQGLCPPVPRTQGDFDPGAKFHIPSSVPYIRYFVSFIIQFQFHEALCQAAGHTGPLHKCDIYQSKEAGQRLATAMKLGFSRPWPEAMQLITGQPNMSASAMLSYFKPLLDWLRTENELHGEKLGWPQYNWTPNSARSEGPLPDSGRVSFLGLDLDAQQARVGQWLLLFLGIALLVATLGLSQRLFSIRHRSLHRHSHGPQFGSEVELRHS

Q: With `NCCC(=O)N[C@@H](Cc1cnc[nH]1)C(=O)O` [Carnosine, β-alanyl-L-histidine] as the compound, how does the “safety in animal studies” value [1] read?
A: safe

Q: With `Cc1ncc(CO)c(CN)c1O` [Pyridoxamine, 4-aminomethyl-5-hydroxy-6-methyl-3-pyridinemethanol] as the compound, how does the water solubility read?
A: water-soluble

Q: For `CC(=O)O[C@H](CC(=O)[O-])C[N+](C)(C)C.NC(N)=NCCC[C@H](N)C(=O)O` [Acetyl-1-carnitine-arginate], which “stimulation of the growth of neurites” value (neurites in the brain) is on record?
A: ≤ 19.5%

Q: Which IC50 (ACE) does the source give for `N[C@@H](CCC(=O)N[C@@H](CS)C(=O)NCC(=O)O)C(=O)O` [Glutathione] here?
A: 10.4 µM
